# Measurements as given in ChEMBL document CHEMBL5608213, “Synthesis of furanotriterpenoids from betulin and evaluation of Tyrosyl-DNA phosphodiesterase 1 (Tdp1) inhibitory properties of new semi-synthetic triterpenoids” (Eur J Med Chem, 2024).
# Key:
# [1] = Cytotoxicity against human Mel-MS cells incubated for 72 hrs by MTT assay; assay type: functional
# PC-3 = test: Cytotoxicity against human PC-3 cells incubated for 72 hrs by MTT assay; assay type: functional
# [2] = biological target: Tyrosyl-DNA phosphodiesterase 1 (Homo sapiens, UniProt Q9NUW8); test: Inhibition of Tdp1 (unknown origin) using 5'-[FAM]AACGTCAGGGTCTTCC[BHQ1]-3' as substrate measured every 55 sec by fluorescence based analysis
# HCT-116 = test: Cytotoxicity against human HCT-116 cells incubated for 72 hrs by MTT assay; assay type: functional
# MDA-MB-231 = test: Cytotoxicity against human MDA-MB-231 cells incubated for 72 hrs by MTT assay; assay type: functional
# [3] = Cytotoxicity against HEK293 cells incubated for 72 hrs by MTT assay; assay type: toxicity, cell-based; conditions: human
# MDA-MB-453 = test: Cytotoxicity against human MDA-MB-453 cells incubated for 72 hrs by MTT assay; assay type: functional
# A549 = test: Cytotoxicity against human A549 cells incubated for 72 hrs by MTT assay; assay type: functional
# HepG2 = test: Cytotoxicity against human HepG2 cells incubated for 72 hrs by MTT assay; assay type: functional
# MCF7 = test: Cytotoxicity against human MCF7 cells incubated for 72 hrs by MTT assay; assay type: functional
# [4] = Cytotoxicity against human MCF-10A cells incubated for 72 hrs by MTT assay; assay type: toxicity, cell-based
# RD = test: Cytotoxicity against human RD cells incubated for 72 hrs by MTT assay; assay type: functional
# [5] = Cytotoxicity against human HeLa-V cells incubated for 72 hrs by MTT assay; assay type: functional
# [6] = Cytotoxicity against human HeLa-V cells assessed as cell viability at <=12.5 uM incubated for 72 hrs in presence of 0.5 uM topotecan by MTT assay relative to control; assay type: functional; conditions: up to 12.5 µM
# [7] = Cytotoxicity against human HeLa-V cells assessed as reduction in cell viability incubated for 72 hrs in presence of 0.5 uM topotecan by MTT assay; assay type: functional
# [8] = Sensitization of topotecan-induced cytotoxicity against human HeLa-V cells assessed as reduction in cell viability by measuring fold change in topotecan CC50 at 10 uM incubated for 72 hrs by MTT assay relative to topotecan alone; assay type: functional
# Tyrosyl-DNA phosphodiesterase 1, sequence (Q9NUW8 whole entry): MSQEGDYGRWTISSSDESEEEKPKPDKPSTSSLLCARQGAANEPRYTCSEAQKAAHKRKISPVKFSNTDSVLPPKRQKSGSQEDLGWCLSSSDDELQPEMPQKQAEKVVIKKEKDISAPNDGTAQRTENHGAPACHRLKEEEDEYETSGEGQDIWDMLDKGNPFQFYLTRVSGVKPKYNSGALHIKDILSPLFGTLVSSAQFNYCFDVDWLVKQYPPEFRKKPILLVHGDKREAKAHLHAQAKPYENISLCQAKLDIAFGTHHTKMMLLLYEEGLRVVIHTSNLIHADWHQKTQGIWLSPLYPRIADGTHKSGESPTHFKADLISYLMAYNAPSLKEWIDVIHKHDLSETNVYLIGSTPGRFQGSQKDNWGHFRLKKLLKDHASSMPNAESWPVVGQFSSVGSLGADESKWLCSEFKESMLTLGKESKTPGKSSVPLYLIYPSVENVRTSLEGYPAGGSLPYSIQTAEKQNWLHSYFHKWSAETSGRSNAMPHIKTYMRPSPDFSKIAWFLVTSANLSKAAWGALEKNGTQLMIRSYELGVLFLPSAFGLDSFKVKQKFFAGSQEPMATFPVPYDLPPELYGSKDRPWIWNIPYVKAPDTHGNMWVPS
Structure (SMILES),CC50 [1] [µM],CC50 (PC-3) [µM],IC50 [2] [µM],CC50 (HCT-116) [µM],CC50 (MDA-MB-231) [µM],CC50 at 72 h [3] [µM],CC50 (MDA-MB-453) [µM],CC50 (A549) [µM],CC50 (HepG2) [µM],CC50 (MCF7) [µM],CC50 at 72 h [4] [µM],CC50 (RD) [µM],CC50 [5] [µM],Activity [6] [%],CC50 [7] [µM],fold change (FC) [8]
C=C1[C@H]2CC[C@@H]3[C@H]4[C@H](C(C)C)CC[C@]4(COC(=O)c4ccccc4)CC[C@@]3(C)[C@]2(C)CC[C@@H]1C(C)(C)[C@@H]1O[C@H]1C#N,> 100,> 100,8,> 100,> 100,> 100,> 100,> 100,> 100,> 100,> 100,> 100,> 100,,,
CC(C)[C@@H]1CC[C@]2(COCc3ccccc3)CC[C@]3(C)[C@H](CC[C@@H]4C(=O)C(C(C)(C)[C@H](CC#N)OC(=O)Cl)CC[C@]43C)[C@@H]12 (some centres not stated),> 100,> 100,12,> 100,> 100,> 100,> 100,56.9,> 100,> 100,> 100,> 100,> 100,,,
CC(C)[C@@H]1CC[C@]2(COC(=O)c3ccccc3)CC[C@]3(C)[C@H](CC[C@@H]4[C@@]5(C)/C(=N/O)C[C@@H](O)C(C)(C)[C@@H]5CC[C@]43C)[C@@H]12,> 100,> 100,2.9,> 100,> 100,> 100,> 100,57.7,> 100,> 100,> 100,> 100,> 100,,,
CC[C@@]1(O)C(=O)OCc2c1cc1n(c2=O)Cc2cc3c(CN(C)C)c(O)ccc3nc2-1 [TOPOTECAN],,,,,,,,,,,,,0.456,,,
CC(C)[C@@H]1CC[C@]2(COC(=O)c3ccccc3)CC[C@]3(C)[C@H](CC[C@@H]4[C@@]5(C)[C@@H](O)[C@H]6O[C@H]6C(C)(C)[C@@H]5CC[C@]43C)[C@@H]12,> 100,> 100,5.1,> 100,> 100,> 100,> 100,> 100,> 100,> 100,> 100,> 100,> 100,,,
CC(C)[C@@H]1CC[C@]2(COC(=O)c3ccccc3)CC[C@]3(C)[C@H](CC[C@@H]4[C@@]5(C)[C@@H](O)C=CC(C)(C)[C@@H]5CC[C@]43C)[C@@H]12,> 100,> 100,9,> 100,> 100,> 100,> 100,> 100,> 100,> 100,> 100,> 100,> 100,,,
CC1(C)CC[C@]23CC[C@]4(C)[C@H](CC[C@@H]5[C@@]6(C)O[C@H](CC#N)C(C)(C)[C@@H]6CC[C@]54C)[C@H]2[C@H]1OC3,> 100,> 100,3.59,90.3,> 100,> 100,> 100,34,> 100,84.9,> 100,> 100,> 100,,,
CC(C)[C@@H]1CC[C@]2(COC(=O)c3ccccc3)CC[C@]3(C)[C@H](CC[C@@H]4[C@@]5(C)O[C@H](CC#N)C(C)(C)[C@@H]5CC[C@]43C)[C@@H]12,> 100,> 100,12.1,> 100,> 100,> 100,> 100,> 100,> 100,> 100,> 100,> 100,> 100,,,
CC(C)[C@@H]1CC[C@]2(COC(=O)c3ccccc3)CC[C@]3(C)[C@H](CC[C@@H]4[C@@]5(C)CC[C@H](O)C(C)(C)[C@@H]5CC[C@]43C)[C@@H]12,> 100,> 100,,> 100,> 100,> 100,> 100,> 100,> 100,> 100,> 100,> 100,> 100,,,
CC(C)[C@@H]1CC[C@]2(CO)CC[C@]3(C)[C@H](CC[C@@H]4[C@@]5(C)O[C@H](CC#N)C(C)(C)[C@@H]5CC[C@]43C)[C@@H]12,> 100,> 100,1,> 100,> 100,> 100,> 100,89.9,> 200,39.2,> 100,79,31.6,~80,14.8,
CC1(C)CC[C@]23CC[C@]4(C)[C@H](CC[C@@H]5[C@@]6(C)O[C@@H](CC#N)C(C)(C)[C@@H]6CC[C@]54C)[C@H]2[C@H]1OC3,,,8,,,,,,,,,,,,,
CC(C)[C@@H]1CC[C@]2(COC(=O)c3ccccc3)CC[C@]3(C)[C@H](CC[C@@H]4[C@@]5(C)/C(=N/O)[C@H]6O[C@H]6C(C)(C)[C@@H]5CC[C@]43C)[C@@H]12,> 100,62.2,2,> 100,> 100,> 100,> 100,> 100,> 100,> 100,> 100,> 100,28,,13.1,
CC(C)[C@@H]1CC[C@]2(COC(=O)c3ccccc3)CC[C@]3(C)[C@H](CC[C@@H]4[C@@]5(C)C(=O)[C@H]6O[C@H]6C(C)(C)[C@@H]5CC[C@]43C)[C@@H]12,> 100,> 100,3,> 100,> 100,> 100,> 100,> 100,> 100,> 100,> 100,> 100,> 100,,,
C=C1[C@H](C(C)(C)[C@@H](O)CC#N)CC[C@]2(C)[C@@H]1CC[C@@H]1[C@H]3[C@H](C(C)C)CC[C@]3(COC(=O)c3ccccc3)CC[C@]12C,> 100,> 100,1.97,> 100,> 100,> 100,> 100,> 100,> 100,> 100,> 100,> 100,> 100,~80,≤ 35.1,<1.5
CC(C)[C@@H]1CC[C@]2(COC(=O)c3ccccc3)CC[C@]3(C)[C@H](CC[C@@H]4[C@@]5(C)CC=CC(C)(C)[C@@H]5CC[C@]43C)[C@@H]12,> 100,> 100,> 100,> 100,> 100,> 100,> 100,> 100,> 100,> 100,> 100,> 100,> 100,,,
CC(C)[C@@H]1CC[C@]2(COC(=O)c3ccccc3)CC[C@]3(C)[C@H](CC[C@@H]4[C@@]5(C)OC(CC#N)C(C)(C)[C@@H]5CC[C@]43C)[C@@H]12 (mixture of isomers),> 100,> 100,7,> 100,> 100,> 100,> 100,58.6,> 100,> 100,> 100,> 100,> 100,,,
CC(C)[C@@H]1CC[C@]2(CO)CC[C@]3(C)[C@H](CC[C@@H]4[C@@]5(C)/C(=N/O)C[C@@H](O)C(C)(C)[C@@H]5CC[C@]43C)[C@@H]12,> 100,> 100,2.9,57.4,> 100,> 100,> 100,> 100,> 100,> 100,> 100,> 100,> 100,,,
CC1(C)CC[C@]23CC[C@]4(C)C(CC[C@@H]5C(=O)C(C(C)(C)[C@H](CC#N)OC(=O)Cl)CC[C@]54C)[C@H]2[C@H]1OC3 (some centres not stated),> 100,> 100,> 100,> 100,> 100,> 100,> 100,> 100,> 100,> 100,> 100,> 100,> 100,,,
COc1cccc2c1C(=O)c1c(O)c3c(c(O)c1C2=O)C[C@@](O)(C(=O)CO)C[C@@H]3O[C@H]1C[C@H](N)[C@H](O)[C@H](C)O1 [DOXORUBICIN],1.3,12.6,,1.3,0.34,0.4,0.04,2,1.8,0.4,0.5,1.3,2.67,,,
